Measured values taken from ChEMBL document CHEMBL5126627, “Structure-Kinetic Relationship Studies for the Development of Long Residence Time LpxC Inhibitors” (J Med Chem, 2022).
≈ marks a conversion by molar mass, not a printed value. Calls of active or inactive are those of the source. The calls are words filed in the database; no cut-off is given here.

Legend:
[1] = test system: Escherichia coli; assay: Antibacterial activity against Escherichia coli ATCC 25922; type: functional
[2] = test system: Pseudomonas aeruginosa; assay: Antibacterial activity against Pseudomonas aeruginosa ATCC 27853; type: functional
[3] = test system: Pseudomonas aeruginosa; assay: Antibacterial activity against Pseudomonas aeruginosa paEP assessed as inhibition of bacterial growth incubated for 24 hrs by microdilution method; type: functional
[4] = test system: Pseudomonas aeruginosa; assay: Antibacterial activity against Pseudomonas aeruginosa PAO1 assessed as post antibiotic effect by measuring time required for increase in 1 log10 CFU/ml of bacteria at 16X MIC incubated for 1 hr followed by compound washout; type: functional
[5] = test system: Pseudomonas aeruginosa; assay: Antibacterial activity against Pseudomonas aeruginosa PAO1 assessed as inhibition of bacterial growth incubated for 24 hrs by microdilution method; type: functional
[6] = test system: Pseudomonas aeruginosa; assay: Binding affinity to Pseudomonas aeruginosa LpxC assessed as residence time incubated for 18 hrs by spin column assay
[7] = test system: Pseudomonas aeruginosa; assay: Binding affinity to Pseudomonas aeruginosa LpxC assessed as binding constant (kon) incubated for 18 hrs by fluorescence based assay
[8] = test system: Pseudomonas aeruginosa; assay: Antibacterial activity against Pseudomonas aeruginosa PAO1 assessed as post antibiotic effect by measuring time required for increase in 1 log10 CFU/ml of bacteria at 8X MIC incubated for 1 hr followed by compound washout; type: functional
[9] = test system: Pseudomonas aeruginosa; assay: Antibacterial activity against Pseudomonas aeruginosa PAO1 assessed as post antibiotic effect by measuring time required for increase in 1 log10 CFU/ml of bacteria at 4X MIC incubated for 1 hr followed by compound washout; type: functional
[10] = test system: Pseudomonas aeruginosa; assay: Binding affinity to Pseudomonas aeruginosa LpxC assessed as binding constant (Koff) incubated for 18 hrs by fluorescence based assay
[11] = test system: Pseudomonas aeruginosa; assay: Bactericidal activity against Pseudomonas aeruginosa PAO1 assessed as reduction in 3log 10 CFU/ml at 4 to 16 times MIC incubated for 16 hrs by time-kill assay; type: functional, organism-based
[12] = test system: Pseudomonas aeruginosa; assay: Binding affinity to Pseudomonas aeruginosa LpxC assessed as residence time incubated for 18 hrs by fluorescence based assay
[13] = Binding affinity to Pseudomonas aeruginosa LpxC assessed as inhibition constant incubated for 18 hrs by fluorescence based assay
[14] = test system: Escherichia coli; assay: Antibacterial activity against Escherichia coli MB2884; type: functional

Compound | MIC [1] [µg/mL] | MIC [2] [µg/mL] | MIC [3] [µM] | Time [4] [h] | MIC [5] [µM] | TIME [6] [h] | K [7] [M⁻¹ s⁻¹] | Time [8] [h] | Time [9] [h] | K [10] [s⁻¹] | Activity [11] | TIME [12] [h] | Ki [13] [pM] | MIC [14] [µg/mL]
CC(C)(N)[C@H](NC(=O)c1ccc(C#CC#C[C@@H]2C[C@H]2CO)cc1)C(=O)NO [ACHN-975] | 0.125 (≈ 0.338 µM) | 0.25 (≈ 0.677 µM) | – | – | – | – | – | – | – | – | – | – | – | –
CC(CCn1ccc(-c2ccc(-c3cn(Cc4ccc(F)cc4)nn3)cc2)cc1=O)(C(=O)NO)S(C)(=O)=O (racemic) | – | – | 0.05 (≈ 0.027 µg/mL) | 3.5 | 1.56 (≈ 0.842 µg/mL) | 106 | 3.38e+07 | 2.5 | 1.7 | 0.00025 | Active | 1.14 | 8 | –
CC(CCn1ccc(-c2ccc(-c3cn(Cc4ccncn4)nn3)cc2)cc1=O)(C(=O)NO)S(C)(=O)=O (racemic) | – | – | 3.12 (≈ 1.64 µg/mL) | – | 50 (≈ 26.2 µg/mL) | – | 4.43e+07 | – | – | 0.00017 | – | 1.71 | 4.2 | –
CC1(Cn2cc(-c3ccc(-c4ccn(CCC(C)(C(=O)NO)S(C)(=O)=O)c(=O)c4)cc3)nn2)COC1 (racemic) | – | – | 1.56 (≈ 0.804 µg/mL) | – | 25 (≈ 12.9 µg/mL) | – | – | – | – | – | – | – | – | –
CC(CCn1ccc(-c2ccc(-c3cn(Cc4cccnc4)nn3)cc2)cc1=O)(C(=O)NO)S(C)(=O)=O (racemic) | – | – | – | – | – | – | 4.28e+07 | – | – | 0.00014 | – | 2.02 | 3.2 | –
CC(CCn1ccc(-c2ccc(-c3cn(CC45CC(C4)C5)nn3)cc2)cc1=O)(C(=O)NO)S(C)(=O)=O (racemic) | – | – | 0.78 (≈ 0.399 µg/mL) | – | 12.5 (≈ 6.4 µg/mL) | – | 8.52e+07 | – | 4 | 0.00015 | – | – | 2.1 | –
CC(CCn1ccc(-c2ccc(NC(=O)Cc3ccccc3)cc2)cc1=O)(C(=O)NO)S(C)(=O)=O (racemic) | – | – | 3.12 (≈ 1.55 µg/mL) | – | 50 (≈ 24.9 µg/mL) | – | 4.48e+07 | – | – | 0.0043 | – | 0.0667 | 95.4 | –
CCCc1cc(C2=N[C@@H](C(=O)NO)CO2)cc(OC)c1OC | – | – | – | – | – | – | – | – | – | – | – | – | – | 1 (≈ 3.24 µM)
CC(CCn1ccc(-c2ccc(-c3cn(CC4CCCCC4)nn3)cc2)cc1=O)(C(=O)NO)S(C)(=O)=O (racemic) | – | – | 3.12 (≈ 1.65 µg/mL) | – | 50 (≈ 26.4 µg/mL) | – | 3.1e+07 | – | – | 0.00017 | – | 1.67 | 5.5 | –
C=CCn1cc(-c2ccc(-c3ccn(CCC(C)(C(=O)NO)S(C)(=O)=O)c(=O)c3)cc2)nn1 (racemic) | – | – | 0.78 (≈ 0.368 µg/mL) | – | 12.5 (≈ 5.89 µg/mL) | 146 | 5.2e+07 | – | – | 0.00022 | – | 1.38 | 6.1 | –
COc1ccc(-c2ccc(CNC3(C(=O)NO)CCS(=O)(=O)CC3)cc2F)cc1 | – | – | 0.1 (≈ 0.0422 µg/mL) | – | 0.8 (≈ 0.338 µg/mL) | – | 3.45e+07 | – | – | 0.00049 | – | 0.572 | 14.4 | –
C[C@@H](O)[C@H](NC(=O)c1ccc(C#Cc2ccc(CN3CCOCC3)cc2)cc1)C(=O)NO | 0.2 (≈ 0.457 µM) | – | – | – | – | – | – | – | – | – | – | – | – | –
CC(CCn1ccc(-c2ccc(-c3cn(CCO)nn3)cc2)cc1=O)(C(=O)NO)S(C)(=O)=O (racemic) | – | – | > 12.5 | – | > 50 | – | 5.96e+07 | – | – | 0.00018 | – | – | 3.7 | –
CC(CCn1ccc(-c2ccc(-n3nccn3)cc2)cc1=O)(C(=O)NO)S(C)(=O)=O (racemic) | – | – | 0.4 (≈ 0.173 µg/mL) | 3.4 | 1.56 (≈ 0.673 µg/mL) | – | – | 2.2 | 1.4 | – | Active | – | – | –
CC(CCn1ccc(-c2ccc(CN3CCOCC3)cc2)cc1=O)(C(=O)NO)S(C)(=O)=O (racemic) | – | – | – | – | 50 (≈ 23.2 µg/mL) | – | 3.64e+07 | – | – | 0.0035 | – | 0.0783 | 96.8 | –
O=C(NO)[C@H](Cc1ccc2ccccc2c1)NS(=O)(=O)c1ccc2ccccc2c1 | 1 (≈ 2.38 µM) | > 0.25 | – | – | – | – | – | – | – | – | – | – | – | –
COc1ccc(-c2ccc(CNC3(C(=O)NO)CCS(=O)(=O)CC3)cc2)c(F)c1 | – | – | 0.03 (≈ 0.0127 µg/mL) | 1.7 | 0.4 (≈ 0.169 µg/mL) | 79 | 1.66e+07 | 1.3 | 1 | 0.00053 | Active | 0.533 | 37.9 | –
CC(CCn1ccc(-c2ccc(-c3cnnn3Cc3ccccc3)cc2)cc1=O)(C(=O)NO)S(C)(=O)=O (racemic) | – | – | 12.5 (≈ 6.52 µg/mL) | – | 50 (≈ 26.1 µg/mL) | – | 2.78e+07 | – | – | 0.00187 | – | 0.15 | 67.7 | –
CC(CCn1ccc(-c2ccc(-c3cn(Cc4ccccn4)nn3)cc2)cc1=O)(C(=O)NO)S(C)(=O)=O (racemic) | – | – | 0.2 (≈ 0.105 µg/mL) | – | 6.25 (≈ 3.27 µg/mL) | – | 3.72e+07 | – | – | – | – | – | 5.5 | –
CC(CCn1ccc(-c2ccc(-c3cn(Cc4ccc([N+](=O)[O-])cc4)nn3)cc2)cc1=O)(C(=O)NO)S(C)(=O)=O (racemic) | – | – | 0.1 (≈ 0.0567 µg/mL) | – | 6.25 (≈ 3.54 µg/mL) | – | 3.07e+07 | – | – | 0.00021 | – | 1.31 | 7 | –
COc1ccc(-c2ccn(CC[C@](C)(C(=O)NO)S(C)(=O)=O)c(=O)c2)c(F)c1 | – | – | – | – | 0.625 (≈ 0.258 µg/mL) | – | – | – | – | – | – | – | – | –
CC(CCn1ccc(-c2ccccc2)cc1=O)(C(=O)NO)S(C)(=O)=O (racemic) | – | – | 0.2 (≈ 0.0729 µg/mL) | 1.3 | 3.12 (≈ 1.14 µg/mL) | – | – | 1.1 | 0.7 | – | Active | – | – | –
CC(CCn1ccc(-c2ccc(C(=O)NCc3ccccc3)cc2)cc1=O)(C(=O)NO)S(C)(=O)=O (racemic) | – | – | 3.12 (≈ 1.55 µg/mL) | – | 25 (≈ 12.4 µg/mL) | – | 2.38e+07 | – | – | 0.0021 | – | 0.133 | 274 | –
CC(CCn1ccc(-c2ccc(-c3cn(Cc4ccncc4)nn3)cc2)cc1=O)(C(=O)NO)S(C)(=O)=O (racemic) | – | – | 6.25 (≈ 3.27 µg/mL) | – | 50 (≈ 26.1 µg/mL) | – | – | – | – | – | – | – | – | –
COc1ccc(-c2ccn(CCC(C)(C(=O)NO)S(C)(=O)=O)c(=O)c2)cc1 (racemic) | – | – | 0.8 (≈ 0.316 µg/mL) | – | 3.12 (≈ 1.23 µg/mL) | – | – | – | – | – | – | – | – | –
CC(CCn1ccc(-c2ccc(-c3cn(Cc4ccccc4)nn3)cc2)cc1=O)(C(=O)NO)S(C)(=O)=O (racemic) | – | – | 0.78 (≈ 0.407 µg/mL) | – | 12.5 (≈ 6.52 µg/mL) | – | 4.38e+07 | – | – | 0.00032 | – | 0.955 | 10.6 | –
CC(CCn1ccc(-c2ccc(-c3cn(CC4CC4)nn3)cc2)cc1=O)(C(=O)NO)S(C)(=O)=O (racemic) | – | – | 0.4 (≈ 0.194 µg/mL) | 3.1 | 3.12 (≈ 1.52 µg/mL) | 191 | 2.64e+07 | 2.2 | 1.6 | 0.00025 | Active | 1.11 | 10.2 | –
C[C@@H](O)C(NC(=O)c1ccc(-c2cn(Cc3ccccc3)nn2)cc1)C(=O)NO (mixture of isomers) | – | – | > 12.5 | – | > 50 | – | – | – | – | – | – | – | – | –
